Data set [1] has as its system NCI-H460. Nature of the data set: Cellular viability assay (NCI-H460). The format is cell-based. As to conditions: 96 hours incubation, Cell Titer-Glo, read-out: EC50 determined in NCIH-460 cells, Cellular viability assay. The method, then: (§1) NCI-H460 and MDA-MB-436 as PARG-inhibition sensitive cell lines, and U2OS as PARG-inhibition insensitive cell line, were plated at 1000 cells/well, 5000 cells/well and 2000 cells/well, respectively, in 96-well white plates with clear flat bottom. After 24 hours, the compounds were added with the Tecan digital dispenser (D300e), in duplicates. The outer wells of the plate were excluded. After 96 hours of incubation, 150 μl of the growth medium were removed and 50 μl of Cell Titer-Glo (Promega) were added per well. Following an incubation of 10 minutes, luminescence was read using a plate reader (Tecan) for NCI-H460 and U2OS cell lines, and a 2104 EnVision plate reader for MDA-MB-436. Averaged values of the samples were normalized to DMSO treated control samples. Curves were fit as % of the control vs. log of the compound concentration using a 4 parameter log-logistic function: […]
In general terms: In ATP-based viability assays light output follows the ATP content of the culture.

Data set [2] relates to U2OS. Nature of the data set: Cellular viability assay (U2OS). The data set is classed as cell-based. The settings on record: Homo sapiens, 96 hours incubation, Cell Titer-Glo, read-out: EC50 determined in U2OS cells, Cellular viability assay. How it is done: as §1
For data set [3], the system named is MDA-MB-436. The data set is described as follows: Cellular viability assay (MDA-MB-436). As to conditions: Homo sapiens, 96 hours incubation, Cell Titer-Glo, read-out: EC50 determined in MDA-MB-436 cells, Cellular viability assay. The data set is classed as cell-based. How it is done: as §1
Data set [4] relates to MDA-MB-436 tumor cells. Nature of the data set: Cell-derived xenograft (CDX) study, MDA-MB-436 xenograft model. The format is in vivo, Mus musculus. As to conditions: BALB/c nude mice. How it is done: • Species: Mus musculus • Strain: BALB/c nude • Age: 6-9 weeks • Sex: Female • Body weight: 17-20 g • Animal supplier: Beijing Vital River Laboratory Animal Technology Co., Ltd • Certificate No: 20230209Abzz0619000498
The MDA-MB-436 tumor cells (ATCC, cat #HTB-130) were maintained in vitro as a monolayer culture in L-15 medium supplemented with 10% fetal bovine serum, 10 μg/mL Insulin, 16 μg/mL glutathione and 1% Antibiotic-Antimycotic at 37° C. in an atmosphere of 0% CO2 in air. The cells growing in an exponential growth phase were harvested and counted for tumor inoculation.
BALB/c nude female mice were inoculated subcutaneously at the right flank with MDA-MB-436 tumor cells (10×10^6/mouse) in 0.2 mL of PBS with Matrigel (1:1) for tumor development. The animals were randomized and the treatment was started on day 25 after tumor inoculation when the average tumor volume reached approximately 126 mm^3. Each group consisted of 10 tumor-bearing mice. The compound of formula (I) was administrated to the mice according to the predetermined regimen as shown in the experimental design table 3
Tumor sizes were measured twice weekly in two dimensions using a caliper, and the volumes were expressed in mm^3. The tumor sizes were then used for the calculations of TGI values.
TGI was calculated for each group using the formula: TGI (%)=[1−(Ti−T0)/(Vi−V0)]×100; Ti is the average tumor volume of a treatment group on a given day, T0 is the average tumor volume of the treatment group on the first day of treatment, Vi is the average tumor volume of the vehicle control group on the same day with Ti, and V0 is the average tumor volume of the vehicle group on the first day of treatment.
A one-way ANOVA was performed to compare the tumor volume among groups.

Data set [5] is described as follows: Kinetic solubility assay. The data set is classed as physicochemical. As to conditions: buffer, aqueous buffer, kinetic from dmso stock, pH 7.4, shake flask, room temperature, HPLC-UV. The method, then:
The Kinetic solubility assay employs the shake flask method followed by HPLC-UV analysis. For exemplary compounds, the kinetic solubility was measured according to the following protocol: • 1. Samples were weighed and dissolved in 100% DMSO to make a stock solution of 10 mM. About 100 μL of stock solution is needed to cover this assay. • 2. Test compounds and controls (10 mM in DMSO, 10 μL/tube) were added into the buffer (490 μL/well) which were placed in a Mini-UniPrep filter. The buffer was prepared as the customer's requirement. • 3. The kinetic solubility samples were vortexed for 2 minutes. • 4. The solubility solutions were shaked in an orbital shaker for 24 hr at room temperature. • 5. 200 μL of each solubility solution were transferd into a 96-deep well for analysis when the samples were directly filtered by the syringeless filter device. • 6. The test compound concentration of the filtrate were determined using HPLC-UV. • 7. Three UV standard solutions were injected into HPLC from low to high concentrations, followed by testing of the K.S. supernatant. Testing samples were injected in duplicate.

Data set [6] has as its target T1, human PARG (Homo sapiens, UniProt Q86W56, A967T/C963S/D927K/H446G/I916T/L447S/L473S/M841I/N479S/R811K/S802A/S858P/T924D).
T1 construct: human PARG (448-976 [H446G, L447S, L473S, N479S, S802A, R811K, M8411, S858P, 1916T, T924D, D927K, C963S, A967T]); 6His-TwinStrep (protease-cleavable) (N, cleaved yes); host or cells: E. coli BL21 (DE3)
Nature of the data set: PARG enzymatic IC50 assay. The format is biochemical. The settings on record: 2 hours incubation with enzyme; substrate ADP-ribose-pNP; absorbance 405 nm; read-out: IC50 determined in PARG enzymatic assay (PARG protein and 2 hours incubation). How it is done:
A codon optimized gene encoding human PARG (448-976 [H446G, L447S, L473S, N479S, S802A, R811K, M8411, S858P, 1916T, T924D, D927K, C963S, A967T]) was synthesized by Genscript, and cloned into pET15b (NcoI/BamHI) with an N-terminal, Thrombin protease cleavable 6His-TwinStrep tag. Expression of the protein in E. coli BL21 (DE3) was induced by addition of 0.2 mM IPTG to a shake flask culture grown to OD600=0.8 at 37° C. Growth was allowed to continue at 30° C. for a further 20 hours before harvesting by centrifugation and storage of the cell pellet at −80° C. […]
PARG enzyme as incubated with compound or vehicle (DMSO) for 15 minutes or 2 hours in a 384 well plate. After adding the PARG substrate ADP-ribose-pNP, the plate was read for absorbance intensity at 405 nm. The vehicle (DMSO) with high absorbance intensity represents no inhibition of enzymatic reaction while the low control (no enzyme) with low absorbance intensity represents full inhibition of enzymatic reaction. […]
The protocol that was used for enzyme reaction and detection is as follows: • 1. […] Read the plate on a plate reader (e.g., Spark Tecan).

Data set [7] has as its target T2, PARG (Homo sapiens, UniProt Q86W56).
T2 construct: endogenous in cells; host or cells: U2OS
The data set is described as follows: Cellular PAR chain assay. The data set is classed as cell-based. As to conditions: U2OS cells. How it is done: The ability of compounds to inhibit PARG in response to DNA damage, was assessed with U2OS cells pretreated with the compounds for 1 hour, following a 1-hour treatment with or without the DNA alkylating agent temozolomide (TMZ). […] The cells were incubated for 2 hours at room temperature with a mouse monoclonal antibody against poly (ADP) ribose (PAR) polymer. The cells were washed and incubated with an anti-mouse Alexa-488 conjugated secondary antibody for 1 hour at room temperature. Propidium iodide staining was used to determine DNA content in the cells (staining at 4° C. overnight). The fluorescence intensity of the cells was assessed by flow cytometry (Cytoflex from Beckmann) and the percentage of PAR chain positive cells (gated in relation to TMZ+DMSO treated control) was determined. PAR chain positive cells % were fit against the concentration of the compound using a 4 parameter log-logistic function, generating PAR chain EC50 values: […]

From patent US20260055106A1, “PARG INHIBITORY COMPOUND” (FORX THERAPEUTICS AG, priority 2021, published 2026) come the findings set out here.

pEC50, pIC50: −log10 of the molar value. Where a name gives a salt, the structure may show the parent alone. Read-outs that look alike come from different tables or passages of the source.

T2 sequence (Q86W56 whole entry): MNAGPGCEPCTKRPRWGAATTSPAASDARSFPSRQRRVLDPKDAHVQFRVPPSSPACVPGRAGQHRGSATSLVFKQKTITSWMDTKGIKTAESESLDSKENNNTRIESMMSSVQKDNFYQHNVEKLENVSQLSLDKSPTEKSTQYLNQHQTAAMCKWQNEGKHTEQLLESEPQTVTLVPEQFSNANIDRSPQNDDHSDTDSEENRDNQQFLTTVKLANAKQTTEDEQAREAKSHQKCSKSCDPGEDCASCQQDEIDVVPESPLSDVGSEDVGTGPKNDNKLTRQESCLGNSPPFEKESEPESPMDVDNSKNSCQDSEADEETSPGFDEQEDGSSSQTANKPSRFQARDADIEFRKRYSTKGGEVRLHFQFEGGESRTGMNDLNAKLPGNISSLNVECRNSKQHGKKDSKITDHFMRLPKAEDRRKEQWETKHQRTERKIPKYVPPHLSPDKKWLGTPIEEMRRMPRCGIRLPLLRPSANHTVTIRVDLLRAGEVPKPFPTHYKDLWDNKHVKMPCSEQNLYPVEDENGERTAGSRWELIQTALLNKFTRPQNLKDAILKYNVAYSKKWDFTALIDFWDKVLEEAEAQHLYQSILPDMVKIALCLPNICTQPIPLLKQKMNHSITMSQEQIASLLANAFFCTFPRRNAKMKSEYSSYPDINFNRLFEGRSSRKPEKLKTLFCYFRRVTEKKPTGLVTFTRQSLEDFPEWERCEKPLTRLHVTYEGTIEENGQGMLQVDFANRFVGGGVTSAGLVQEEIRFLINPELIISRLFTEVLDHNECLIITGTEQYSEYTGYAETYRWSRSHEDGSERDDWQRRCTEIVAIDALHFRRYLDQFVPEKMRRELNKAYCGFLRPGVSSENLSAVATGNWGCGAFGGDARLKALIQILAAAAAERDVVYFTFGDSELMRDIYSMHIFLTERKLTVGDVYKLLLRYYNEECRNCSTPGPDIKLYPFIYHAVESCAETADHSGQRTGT
T1 sequence (Q86W56 446-976 H446G/L447S/L473S/N479S/S802A/R811K/M841I/S858P/I916T/T924D/D927K/C963S/A967T): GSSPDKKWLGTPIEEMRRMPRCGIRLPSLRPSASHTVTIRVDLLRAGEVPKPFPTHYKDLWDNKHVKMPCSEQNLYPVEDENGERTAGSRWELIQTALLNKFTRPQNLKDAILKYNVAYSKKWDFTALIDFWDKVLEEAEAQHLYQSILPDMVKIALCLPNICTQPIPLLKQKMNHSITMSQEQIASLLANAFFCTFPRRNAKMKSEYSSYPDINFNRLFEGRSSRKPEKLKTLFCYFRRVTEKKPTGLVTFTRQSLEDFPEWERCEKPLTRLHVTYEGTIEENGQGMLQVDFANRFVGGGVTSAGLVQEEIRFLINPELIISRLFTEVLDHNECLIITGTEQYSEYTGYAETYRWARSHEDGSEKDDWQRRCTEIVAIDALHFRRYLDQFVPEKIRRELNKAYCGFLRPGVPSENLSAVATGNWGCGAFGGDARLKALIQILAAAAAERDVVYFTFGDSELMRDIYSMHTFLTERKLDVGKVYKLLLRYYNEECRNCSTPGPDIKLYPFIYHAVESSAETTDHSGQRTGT

For `C[C@H]1CN(c2cc(S(=O)(=O)NC3(C)CC3)cn3c(-c4nnc(C(F)F)s4)ncc23)C[C@H](C)N1` (single isomer, unassigned) [Example 1b], the pEC50 is 7.66 in data set [1] (listed as 1b fraction B); 7.68 in data set [1] (Homo sapiens, NCI-H460, 96 h); under 5.70 in data set [2].
Consider `C[C@H]1CN(c2cc(S(=O)(=O)NC3(C)CC3)cn3c(-c4nnc(C(F)F)s4)ncc23)C[C@H](C)N1` [Example 1, 3-(5-(difluoromethyl)-1,3,4-thiadiazol-2-yl)-8-((3S,5S)-3,5-dimethylpiperazin-1-yl)-N-(1-methylcyclopropyl)imidazo[1,5-a]pyridine-6-sulfonamide formate], for which the pEC50 in data set [3] is 7.77; in data set [1] (Homo sapiens, NCI-H460, 96 h), over 7.72; in data set [2], 4.92; in data set [7] (with treatment of TMZ, read-out: EC50 determined in Cellular PAR chain assay (conditions with treatment of TMZ)), over 8.52; in data set [7] (without treatment of TMZ, read-out: EC50 determined in Cellular PAR chain assay (conditions without treatment of TMZ)), over 8.52. Moreover, the “Tumor volume on day 28” value in data set [4] (100 mg/kg PO QD x 28 days, Mean ± SEM) came to 27 ± 9 mm^3. Moreover, the TGI in data set [4] (100 mg/kg PO QD x 28 days, day 28) is reported as 118.20%. The anti-tumor response result in data set [4] (100 mg/kg, MDA-MB-436 xenograft) is “tumor regression seen in all mice”. The kinetic solubility at 24 h in data set [5] turned out to be 152 µM. Further, in data set [6], the pIC50 is 7.96.

In general, pEC50 refers to the EC50 on a negative log10 scale, so that one unit is a factor of ten. A word on the kinetic solubility: it is the concentration staying in solution when a stock, usually in DMSO, is diluted into the medium. Usually pIC50 stands for −log10 of the IC50, conventionally taken in molar units.
